# Target: thrombin (Homo sapiens, UniProt P00734)
# Assay: Effect of test compounds on thrombin activity: hydrolysis rate of chromogenic (Chromozim TH) or fluorogenic (BOC-Ala-Pro-Arg-AMC) substrate
# Type: biochemical
# Conditions: for inhibition at 0.00125 µM: concentration of compound 1.25 nM; for inhibition at 0.0025 µM: concentration of compound 2.5 nM; for inhibition at 0.0125 µM: concentration of compound 12.5 nM; for inhibition at 0.05 µM: concentration of compound 50 nM; for inhibition at 0.125 µM: concentration of compound 125 nM; for inhibition at 0.005 µM: concentration of compound 5 nM; for inhibition at 0.025 µM: concentration of compound 25 nM; for inhibition at 0.1 µM: concentration of compound 100 nM
# From the text: The effect of the synthesized substances on thrombin activity was studied by measuring the hydrolysis rate of specific low molecular weight substrates with thrombin in an aqueous buffering solution in the absence and presence of these compounds. One of these substrates was chromogenic substrate Chromozim TH (CTH): N-(p-Tosyl)-Gly-Pro-Arg-pNA [Sonder S A, Fenton J W 2nd. Thrombin Specificity with Tripeptide Chromogenic Substrates: Comparison of Human and Bovine Thrombins with and without Fibrinogen Clotting Activities. Clin. Chem., 1986, 32(6):934-937]. Another substrate that was used in a number of experiments was fluorogenic substrate BOC-Ala-Pro-Arg-AMC (S), wherein BOC is butoxycarbonyl residue, and AMC is 7-amino-4-methylcoumaryl [Kawabata S, Miura T, Morita T, Kato H, Fujikawa K, Ivanaga S, Takada K, Kimura T, Sakakibara S. Highly Sensitive peptide-4-methylcoumaryl-7-amide Substrates for Blood-Clotting Proteases and Trypsin. Eur. J. Biochem., 1988, 172(1):17-25].
# The holes of a common 96-hole board were filled with a buffer containing 140 mM of NaCl, 20 mM of HEPES, and 0.1% polyethylene glycol (Mw=6,000), at pH=8.0. […] When a chromogenic substrate was used, accumulation of the colored reaction product—para-nitroaniline—was followed on a spectrophotometric Molecular Devices board reader (Thermomax, U.S.), measuring the increase in optical density on the 405 nm wavelength. […] The reaction kinetics was registered on a fluorometric Titertek Fluoroskan board reader (LabSystem, Finland).
# The initial reaction rate was measured as the tangent of the kinetic curve inclination angle on a straight section (first 10 to 15 minutes of registration). Reaction rate without an inhibitor was a ssumed to be 100%. The mean arithmetic value of two independent measurements was used as the end result.
# [1] = concentration of compound 0.25 mcM
# [2] = concentration of compound 0.5 mcM
# [3] = concentration of compound 1.25 mcM
# [4] = concentration of compound 2.5 mcM
# [5] = concentration of compound 5 mcM
# [6] = concentration of compound 25 mcM
# [7] = concentration of compound 50 mcM
# [8] = concentration of compound 250 mcM
# [9] = concentration of compound 2 mcM
# [10] = concentration of compound 100 mcM
# [11] = concentration of compound 10 mcM
# [12] = concentration of compound 500 mcM
structure (smiles),measurement,setting,value
Cc1cc(OCC[n+]2ccsc2N)cc(OS(=O)(=O)c2ccccc2Cl)c1.[I-] [HC_045s_IOC],"Hydrolysis rate inhibition, %",concentration of compound 0.125 mcM,10%
same,"Hydrolysis rate inhibition, %",[1],18%
same,"Hydrolysis rate inhibition, %",[2],42%
same,"Hydrolysis rate inhibition, %",[3],66%
same,"Hydrolysis rate inhibition, %",[4],87%
CNc1ccc(S(=O)(=O)N(C)c2ccccc2)cc1NC(=O)CC[n+]1ccc(N(C)C)cc1.[Cl-] [HC-022s-IOC],"Hydrolysis rate inhibition, %",[1],21%
same,"Hydrolysis rate inhibition, %",[2],18%
same,"Hydrolysis rate inhibition, %",[5],27%
same,"Hydrolysis rate inhibition, %",[6],34%
same,"Hydrolysis rate inhibition, %",[7],40%
same,"Hydrolysis rate inhibition, %",concentration of compound 130 mcM,36%
same,"Hydrolysis rate inhibition, %",[8],51%
"Cc1cc(OCC[n+]2ccc(N)cc2)cc(OS(=O)(=O)c2ccccc2Cl)c1 [HC-025s-IOC, 4-amino-1-(2-(3-methyl-5-(2-chlorobenzenesulfonyloxy)phenoxy)ethyl)-pyridinium iodide]",inhibition at 0.00125 µM,,69%
same,inhibition at 0.0025 µM,,52%
same,inhibition at 0.0063 µM,concentration of compound 6.3 nM,70%
same,inhibition at 0.0125 µM,,81%
same,inhibition at 0.05 µM,,96%
same,inhibition at 0.125 µM,,98%
"Cc1cc(OCCCSC(=N)N)cc(OS(=O)(=O)c2ccccc2Cl)c1 [HC-026s-IOC, 3-(3-methyl-5-(2-chlorobenzenesulfonyloxy)phenoxy)propyl-isothiouronium iodide]",inhibition at 0.005 µM,,47%
same,inhibition at 0.0125 µM,,40%
same,inhibition at 0.025 µM,,64%
same,inhibition at 0.125 µM,,68%
Cc1cc(OCCCn2ccsc2=N)cc(OS(=O)(=O)c2ccccc2)c1,inhibition at 0.1 µM,,5%
same,inhibition at 0.2 µM,concentration of compound 200 nM,10%
same,"Hydrolysis rate inhibition, %",[2],23%
same,"Hydrolysis rate inhibition, %",[9],57%
same,"Hydrolysis rate inhibition, %",[5],73%
same,"Hydrolysis rate inhibition, %",concentration of compound 20 mcM,95%
same,"Hydrolysis rate inhibition, %",[7],95%
same,"Hydrolysis rate inhibition, %",[10],96%
same,"Hydrolysis rate inhibition, %",concentration of compound 200 mcM,97%
Cc1cc(OCC[n+]2ccc(N)cc2)cc(OS(=O)(=O)c2ccccc2F)c1 [HC_037s_IOC],inhibition at 0.0025 µM,,43%
same,inhibition at 0.005 µM,,59%
same,inhibition at 0.025 µM,,82%
same,inhibition at 0.05 µM,,86%
same,"Hydrolysis rate inhibition, %",[4],89%
Cc1ccc(S(=O)(=O)Oc2cc(C)cc(OCC[n+]3ccc(N)cc3)c2)cc1 [HC_038s_IOC],inhibition at 0.005 µM,,47%
same,inhibition at 0.025 µM,,56%
same,inhibition at 0.05 µM,,85%
same,"Hydrolysis rate inhibition, %",[4],96%
CN(c1ccccc1)S(=O)(=O)c1ccc2c(c1)nc(CC[n+]1ccc(N)cc1)n2C.[Cl-] [HC_027s_IOC],"Hydrolysis rate inhibition, %",[1],11%
same,"Hydrolysis rate inhibition, %",[2],6%
same,"Hydrolysis rate inhibition, %",[4],24%
same,"Hydrolysis rate inhibition, %",[5],24%
same,"Hydrolysis rate inhibition, %",[11],59%
same,"Hydrolysis rate inhibition, %",[6],72%
same,"Hydrolysis rate inhibition, %",[7],88%
same,"Hydrolysis rate inhibition, %",[10],100%
same,"Hydrolysis rate inhibition, %",[8],100%
same,"Hydrolysis rate inhibition, %",[12],100%
Cc1cc(OCC[n+]2ccc(N)cc2)cc(OS(=O)(=O)c2ccc(Cl)cc2)c1 [HC_039s_IOC],inhibition at 0.0025 µM,,24%
same,inhibition at 0.005 µM,,44%
same,inhibition at 0.025 µM,,73%
same,inhibition at 0.05 µM,,88%
same,"Hydrolysis rate inhibition, %",[4],98%
Cc1cc(OCC[n+]2ccc(N)nc2)cc(OS(=O)(=O)c2ccccc2)c1.[I-] [HC_047s_IOC],inhibition at 0.01 µM,concentration of compound 10 nM,8%
same,inhibition at 0.025 µM,,10%
same,inhibition at 0.05 µM,,14%
same,"Hydrolysis rate inhibition, %",[1],36%
same,"Hydrolysis rate inhibition, %",[2],49%
same,"Hydrolysis rate inhibition, %",concentration of compound 1.85 mcM,84%
same,"Hydrolysis rate inhibition, %",[4],90%
"Cc1cc(OCC[n+]2ccc(N)cc2)cc(OS(=O)(=O)c2ccccc2)c1 [HC-019s-IOC, 4-amino-1-(2-(3-methyl-5-(benzene Sulfonyloxy)phenoxy)ethyl)-pyridinium iodide]",inhibition at 0.0025 µM,,55%
same,inhibition at 0.005 µM,,88%
same,inhibition at 0.0125 µM,,90%
same,inhibition at 0.025 µM,,88%
same,inhibition at 0.05 µM,,95%
same,inhibition at 0.125 µM,,94%
Cc1cc(OCCSC(=N)N)cc(OS(=O)(=O)c2ccccc2Cl)c1 [HC_046s_IOC],inhibition at 0.00125 µM,,18%
same,inhibition at 0.0025 µM,,39%
same,inhibition at 0.005 µM,,59%
same,inhibition at 0.0125 µM,,77%
same,inhibition at 0.025 µM,,92%
Cc1cc(OCC[n+]2ccc(N)cc2)cc(OS(=O)(=O)c2ccccc2S(C)(=O)=O)c1 [HC_036s_IOC],inhibition at 0.0025 µM,,29%
same,inhibition at 0.005 µM,,28%
same,inhibition at 0.025 µM,,79%
same,inhibition at 0.05 µM,,88%
same,"Hydrolysis rate inhibition, %",[4],96%
"Cc1cc(OCCC[n+]2ccc(N)cc2)cc(OS(=O)(=O)c2ccccc2Cl)c1 [HC-023s-IOC, 4-AMINO-1-(3-(3-METHYL-5-(2-CHLOROBENZENE SULFONYLOXY)PHENOXY)PROPYL)-PYRIDINIUM IODIDE]","Hydrolysis rate inhibition, %",concentration of compound 0.7 mcM,13%
same,"Hydrolysis rate inhibition, %",concentration of compound 1.4 mcM,34%
same,"Hydrolysis rate inhibition, %",concentration of compound 3.4 mcM,50%
same,"Hydrolysis rate inhibition, %",concentration of compound 34 mcM,86%
same,"Hydrolysis rate inhibition, %",concentration of compound 68 mcM,99%
same,"Hydrolysis rate inhibition, %",[8],100%
CN(C)c1cc[n+](CCc2nc3cc(S(=O)(=O)N(C)c4ccccc4)ccc3n2C)cc1.[Cl-] [HC-021s-IOC],"Hydrolysis rate inhibition, %",[6],5%
same,"Hydrolysis rate inhibition, %",[10],8%
same,"Hydrolysis rate inhibition, %",[8],4%
same,"Hydrolysis rate inhibition, %",[12],4%
C/N=C(/N)SCCCOc1cc(C)cc(OS(=O)(=O)c2ccccc2Cl)c1.I [HC_032s_IOC],inhibition at 0.05 µM,,10%
same,inhibition at 0.1 µM,,17%
same,"Hydrolysis rate inhibition, %",[5],48%
same,"Hydrolysis rate inhibition, %",[11],71%
Cc1cc(OCCC[n+]2ccsc2N)cc(OS(=O)(=O)c2ccccc2F)c1.[I-] [HC_030s_IOC],inhibition at 0.02 µM,concentration of compound 20 nM,5%
same,inhibition at 0.05 µM,,18%
same,"Hydrolysis rate inhibition, %",[9],72%
same,"Hydrolysis rate inhibition, %",[5],88%
same,"Hydrolysis rate inhibition, %",[11],93%
"Cc1cc(OCCSC(=N)N)cc(OS(=O)(=O)c2ccccc2)c1.I [HC-020s-IOC, 2-(3-methyl-5-(benzenesulfonyloxy)phenoxy)ethyl-isothioronium iodide]",inhibition at 0.005 µM,,54%
same,inhibition at 0.0125 µM,,46%
same,inhibition at 0.025 µM,,59%
same,inhibition at 0.05 µM,,68%
same,inhibition at 0.125 µM,,81%
same,inhibition at 0.25 µM,concentration of compound 250 nM,94%
same,inhibition at 0.5 µM,concentration of compound 500 nM,96%
same,"Hydrolysis rate inhibition, %",[3],98%
same,"Hydrolysis rate inhibition, %",[4],99%
same,"Hydrolysis rate inhibition, %",[5],99%
Nc1cc[n+](CCOc2cccc(NS(=O)(=O)c3ccccc3)c2)cc1 [HC_041s_IOC],"Hydrolysis rate inhibition, %",concentration of compound 0.1 mcM,56%
same,"Hydrolysis rate inhibition, %",[1],62%
same,"Hydrolysis rate inhibition, %",[2],75%
same,"Hydrolysis rate inhibition, %",concentration of compound 1.75 mcM,88%
same,"Hydrolysis rate inhibition, %",concentration of compound 3.75 mcM,90%
same,"Hydrolysis rate inhibition, %",[6],95%
same,"Hydrolysis rate inhibition, %",[8],99%

# Reference: US20100324058A1 (Obschestvo S Organichennoi Otvetsttvennoctiyou "Bionika", priority 2007, published 2010)
